According to patent US20260297109A1, “COMPOUNDS AS SUMO ACTIVATING ENZYME INHIBITORS” (WIGEN BIOMEDICINE TECHNOLOGY (SHANGHAI) CO., LTD., priority 2022, published 2026):

biological target: T1, SAE (Homo sapiens, UniProt Q9UBT2); assay: SUMO IF: in vitro inhibitory activity assay against SAE in HCT116 cells (SUMO-2/3 immunofluorescence); assay type: cell-based; conditions: class symbols, 6 h at 37° C.
T1 construct: endogenous in cells; host or cells: HCT116
T1 sequence (Q9UBT2 1-640): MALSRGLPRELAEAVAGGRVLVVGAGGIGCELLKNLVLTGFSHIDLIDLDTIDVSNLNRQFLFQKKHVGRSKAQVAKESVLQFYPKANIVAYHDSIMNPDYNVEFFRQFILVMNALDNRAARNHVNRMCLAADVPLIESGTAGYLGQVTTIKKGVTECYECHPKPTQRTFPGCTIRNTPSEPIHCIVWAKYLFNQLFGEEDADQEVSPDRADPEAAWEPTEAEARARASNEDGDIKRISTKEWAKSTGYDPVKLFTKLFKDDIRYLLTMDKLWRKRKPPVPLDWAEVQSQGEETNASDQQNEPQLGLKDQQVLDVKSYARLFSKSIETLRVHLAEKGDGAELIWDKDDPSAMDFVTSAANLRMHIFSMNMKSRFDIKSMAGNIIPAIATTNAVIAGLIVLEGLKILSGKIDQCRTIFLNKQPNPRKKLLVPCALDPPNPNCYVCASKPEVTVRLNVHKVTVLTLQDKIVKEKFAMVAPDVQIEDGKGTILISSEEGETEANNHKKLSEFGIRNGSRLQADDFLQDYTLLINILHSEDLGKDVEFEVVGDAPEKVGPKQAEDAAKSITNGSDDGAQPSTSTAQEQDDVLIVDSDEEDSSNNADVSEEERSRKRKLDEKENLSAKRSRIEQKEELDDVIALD
T1 sequence (Q9UBE0 1-346): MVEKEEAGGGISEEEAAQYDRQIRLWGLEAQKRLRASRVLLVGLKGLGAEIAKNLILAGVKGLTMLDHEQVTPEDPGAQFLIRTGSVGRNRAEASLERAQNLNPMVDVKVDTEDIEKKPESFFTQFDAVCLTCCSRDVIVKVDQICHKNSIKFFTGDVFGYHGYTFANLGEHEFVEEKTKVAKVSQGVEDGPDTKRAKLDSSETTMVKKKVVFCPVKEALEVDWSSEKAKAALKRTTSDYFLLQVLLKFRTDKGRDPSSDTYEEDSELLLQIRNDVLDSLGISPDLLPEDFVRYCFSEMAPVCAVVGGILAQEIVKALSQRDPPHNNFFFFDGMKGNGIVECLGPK
Procedure, shortened: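 HCT116 cells were treated with compound for 6 h at 37 °C, then PFA-fixed, Triton-permeabilised and BSA-blocked. They were stained overnight at 4 °C with anti-SUMO-2/3 (18H8) rabbit mAb (1:400), then with FITC anti-rabbit IgG (1:300). Fluorescence versus DMSO gave inhibition rate and IC50.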

| SMILES | IC50 |
| --- | --- |
| NS(=O)(=O)OC[C@H]1[C@H](F)[C@@H](Nc2ncncc2C(=O)c2cc3c(s2)C=CC32NCCc3ccc(F)cc32)C[C@@H]1O (stereo partly drawn) [Compound 163] | 50 to 200 nM |
| NS(=O)(=O)OC[C@H]1[C@H](F)[C@@H](Nc2ncncc2C(=O)c2cc3c(s2)CCC32NCCc3cc(Cl)c(Cl)cc32)C[C@@H]1O (stereo partly drawn) [Compound 154] | 50 to 200 nM |
| NS(=O)(=O)OC[C@H]1[C@H](F)[C@@H](Nc2ncncc2C(=O)c2cc3c(s2)CN(C2CC2)CC32NCCc3ccc(Cl)cc32)C[C@@H]1O (stereo partly drawn) [Compound 579] | ≤ 50 nM |
| NS(=O)(=O)OC[C@H]1[C@H](F)[C@@H](Nc2ncncc2C(=O)c2cc3c(s2)CC[C@]32NC3(CC3)Cc3ccc(Cl)cc32)C[C@@H]1O [Compound 705] | 50 to 200 nM |
| CC1Cc2ccc(Cl)cc2[C@]2(CCCc3sc(C(=O)c4cncnc4N[C@H]4C[C@H](O)[C@@H](COS(N)(=O)=O)[C@@H]4F)cc32)N1 (stereo partly drawn) [Compound 1024] | > 200 nM |
| COc1ccc2c(c1)[C@@]1(CCCc3sc(C(=O)c4cncnc4N[C@H]4C[C@H](O)[C@@H](COS(N)(=O)=O)[C@@H]4F)cc31)NCC2 [Compound 644] | > 200 nM |
| NS(=O)(=O)OC[C@H]1[C@H](F)[C@@H](Nc2ncncc2C(=O)c2cc3c(s2)CO[C@]32NCCc3ccc(Cl)cc32)C[C@@H]1O [Compound 703] | 50 to 200 nM |
| N#Cc1ccc2c(c1)[C@@]1(CCc3sc(C(=O)c4cncnc4N[C@H]4C[C@H](O)[C@@H](COS(N)(=O)=O)[C@@H]4F)cc31)OCC2 [Compound 752] | ≤ 50 nM |
| Cc1cc2c(cc1Cl)C1(CCCc3sc(C(=O)c4cncnc4N[C@H]4C[C@H](O)[C@@H](COS(N)(=O)=O)[C@@H]4F)cc31)NCC2 (stereo partly drawn) [Compound 113] | 50 to 200 nM |
| NS(=O)(=O)OC[C@H]1[C@H](F)[C@@H](Nc2ncncc2C(=O)c2cc3c(s2)CCCC32NCCc3cc(Cl)c(F)cc32)C[C@@H]1O (stereo partly drawn) [Compound 117] | 50 to 200 nM |
| NS(=O)(=O)OC[C@H]1[C@H](F)[C@@H](Nc2ncncc2C(=O)c2cc3c(s2)CCC[C@@]32NCC3(CC3)c3ccc(Cl)cc32)C[C@@H]1O [Compound 616] | > 200 nM |
| NS(=O)(=O)OC[C@H]1[C@H](F)[C@@H](Nc2ncncc2C(=O)c2cc3c(s2)CNC[C@@]32NCCc3ccc(Cl)cc32)C[C@@H]1O [Compound 583] | > 200 nM |
| NS(=O)(=O)OC[C@H]1[C@H](F)[C@@H](Nc2ncncc2C(=O)c2cc3c(s2)CCC32OCCc3ccc(F)cc32)C[C@@H]1O (stereo partly drawn) [Compound 747] | 50 to 200 nM |
| NS(=O)(=O)OC[C@H]1[C@H](F)[C@@H](Nc2ncncc2C(=O)c2cc3c(s2)CCC[C@]32NCCc3cc(Cl)ncc32)C[C@@H]1O [Compound 679] | 50 to 200 nM |
| NS(=O)(=O)OC[C@H]1[C@H](F)[C@@H](Nc2ncncc2C(=O)c2cc(C3NCCc4ccc(Cl)cc43)c(C3CC3)s2)C[C@@H]1O (stereo partly drawn) [Compound 984] | 50 to 200 nM |
| NS(=O)(=O)OC[C@H]1[C@H](F)[C@@H](Nc2ncncc2C(=O)c2cc3c(s2)C(=O)CC32NCCc3ccc(Cl)cc32)C[C@@H]1O (stereo partly drawn) [Compound 630] | 50 to 200 nM |
| NS(=O)(=O)OC[C@H]1[C@H](F)[C@@H](Nc2ncncc2C(=O)c2cc3c(s2)COC[C@]32NCCc3ccc(Cl)c(F)c32)C[C@@H]1O [Compound 569] | 50 to 200 nM |
| NS(=O)(=O)OC[C@H]1[C@H](F)[C@@H](Nc2ncncc2C(=O)c2cc3c(s2)COC[C@]32NCCc3c(Cl)cc(Cl)cc32)C[C@@H]1O [Compound 566] | 50 to 200 nM |
| NS(=O)(=O)OC[C@H]1[C@H](F)[C@@H](Nc2ncncc2C(=O)c2cc3c(s2)C(F)(F)C[C@]32NCCc3ccc(Cl)cc32)C[C@@H]1O [Compound 329] | 50 to 200 nM |
| Cc1sc(C(=O)c2cncnc2N[C@H]2C[C@H](O)[C@@H](COS(N)(=O)=O)[C@@H]2F)cc1[C@H]1NCCc2ccccc21 [Compound 231] | > 200 nM |
| NS(=O)(=O)OC[C@H]1[C@H](F)[C@@H](Nc2ncncc2C(=O)c2cc3c(s2)OCC32NCCc3ccc(F)cc32)C[C@@H]1O (stereo partly drawn) [Compound 142] | > 200 nM |
| CCN1Cc2sc(C(=O)c3cncnc3N[C@H]3C[C@H](O)[C@@H](COS(N)(=O)=O)[C@@H]3F)cc2[C@]2(C1)OCCc1ccc(Cl)cc12 [Compound 731] | ≤ 50 nM |

| SMILES | IC50 |
| --- | --- |
| NS(=O)(=O)OC[C@H]1[C@H](F)[C@@H](Nc2ncncc2C(=O)c2cc3c(s2)CCC32NCC3(CC3)c3ccc(Cl)cc32)C[C@@H]1O (stereo partly drawn) [Compound 165] | 50 to 200 nM |
| NS(=O)(=O)OC[C@H]1[C@H](F)[C@@H](Nc2ncncc2C(=O)c2cc3c(s2)COC[C@]32NCCc3ccc(F)cc32)C[C@@H]1O [Compound 102] | 50 to 200 nM |
| Cc1sc(C(=O)c2cncnc2N[C@H]2C[C@H](O)[C@@H](COS(N)(=O)=O)[C@@H]2F)cc1[C@@H]1NCCc2ccc(C#N)cc21 [Compound 239] | 50 to 200 nM |
| NS(=O)(=O)OC[C@H]1[C@H](F)[C@@H](Nc2ncncc2C(=O)c2cc3c(s2)CCCC32NCCc3cnc(Cl)cc32)C[C@@H]1O (stereo partly drawn) [Compound 597] | 50 to 200 nM |
| CN1CCc2ccc(Cl)cc2C12CCCc1sc(C(=O)c3cncnc3N[C@H]3C[C@H](O)[C@@H](COS(N)(=O)=O)[C@@H]3F)cc12 (stereo partly drawn) [Compound 594] | 50 to 200 nM |
| CN1Cc2sc(C(=O)c3cncnc3N[C@H]3C[C@H](O)[C@@H](COS(N)(=O)=O)[C@@H]3F)cc2C2(C1)OCCc1ccc(F)cc12 (stereo partly drawn) [Compound 720] | 50 to 200 nM |
| NS(=O)(=O)OC[C@H]1[C@H](F)[C@@H](Nc2ncncc2C(=O)c2cc3c(s2)OCCC32NCCc3ccc(Cl)cc32)C[C@@H]1O (stereo partly drawn) [Compound 122] | 50 to 200 nM |
| NS(=O)(=O)OC[C@H]1[C@H](F)[C@@H](Nc2ncncc2C(=O)c2cc3c(s2)CCC32NCCc3cc(F)c(Cl)c(F)c32)C[C@@H]1O (stereo partly drawn) [Compound 158] | 50 to 200 nM |
| Cc1ccc2c(c1)C1(CCCc3sc(C(=O)c4cncnc4N[C@H]4C[C@H](O)[C@@H](COS(N)(=O)=O)[C@@H]4F)cc31)NCC2 (stereo partly drawn) [Compound 106] | 50 to 200 nM |
| NS(=O)(=O)OC[C@H]1[C@H](F)[C@@H](Nc2ncncc2C(=O)c2cc3c(s2)CSCC32NCCc3ccc(F)cc32)C[C@@H]1O (stereo partly drawn) [Compound 297] | ≤ 50 nM |
| NS(=O)(=O)OC[C@H]1[C@H](F)[C@@H](Nc2ncncc2C(=O)c2cc3c(s2)CC[C@]32OCCc3ccc(Cl)cc32)C[C@@H]1O [Compound 707] | ≤ 50 nM |
| Cc1sc(C(=O)c2cncnc2N[C@H]2C[C@H](O)[C@@H](COS(N)(=O)=O)[C@@H]2F)cc1C1NC=Cc2ccc(Cl)cc21 (stereo partly drawn) [Compound 267] | 50 to 200 nM |
| NS(=O)(=O)OC[C@H]1[C@H](F)[C@@H](Nc2ncncc2C(=O)c2cc3c(s2)C(=O)C[C@@]32NCCc3ccc(Cl)cc32)C[C@@H]1O [Compound 631] | > 200 nM |
| NS(=O)(=O)OC[C@H]1[C@H](F)[C@@H](Nc2ncncc2C(=O)c2cc3c(s2)CCC[C@]32NCCc3cc(Cl)c(F)cc32)C[C@@H]1O [Compound 677] | ≤ 50 nM |
| CC(C)N1Cc2sc(C(=O)c3cncnc3N[C@H]3C[C@H](O)[C@@H](COS(N)(=O)=O)[C@@H]3F)cc2C2(C1)OCCc1ccc(Cl)cc12 (stereo partly drawn) [Compound 735] | 50 to 200 nM |
| NS(=O)(=O)OC[C@H]1[C@H](F)[C@@H](Nc2ncncc2C(=O)c2cc3c(s2)CSCC32NCCc3cnc(Cl)cc32)C[C@@H]1O (stereo partly drawn) [Compound 606] | 50 to 200 nM |
| NS(=O)(=O)OC[C@H]1[C@H](F)[C@@H](Nc2ncncc2C(=O)c2cc3c(s2)CCCC32NCCc3cc(F)c(Cl)c(F)c32)C[C@@H]1O (stereo partly drawn) [Compound 116] | 50 to 200 nM |
| Cc1sc(C(=O)c2cncnc2N[C@H]2C[C@H](O)[C@@H](COS(N)(=O)=O)[C@@H]2F)cc1[C@H]1NCCc2ccc(C#N)cc21 [Compound 240] | > 200 nM |
| NS(=O)(=O)OC[C@H]1[C@H](F)[C@@H](Nc2ncncc2C(=O)c2cc3c(s2)COCC32NCCc3cc(Cl)c(Cl)cc32)C[C@@H]1O (stereo partly drawn) [Compound 561] | 50 to 200 nM |
| N#Cc1ccc2c(c1)[C@@]1(CCc3sc(C(=O)c4cncnc4N[C@H]4C[C@H](O)[C@@H](COS(N)(=O)=O)[C@@H]4F)cc31)NCC2 [Compound 138] | 50 to 200 nM |
| NS(=O)(=O)OC[C@H]1[C@H](F)[C@@H](Nc2ncncc2C(=O)c2cc3c(s2)CCCC32NCCc3ccc(F)cc32)C[C@@H]1O (stereo partly drawn) [Compound 91] | 50 to 200 nM |

same assay, conditions: numeric values, 6 h at 37° C.

| SMILES | IC50 |
| --- | --- |
| CC(C)N1Cc2sc(C(=O)c3cncnc3N[C@H]3C[C@H](O)[C@@H](COS(N)(=O)=O)[C@@H]3F)cc2[C@]2(C1)NCCc1ccc(Cl)cc12 [Compound 650] | 21.7 nM |
| CN1Cc2sc(C(=O)c3cncnc3N[C@H]3C[C@H](O)[C@@H](COS(N)(=O)=O)[C@@H]3F)cc2[C@]2(C1)NCCc1ccc(Cl)cc12 [Compound 578] | 29.2 nM |
